Assay results reported in US8399689B2, “Chrysophaentin antimicrobial compounds that inhibit FtsZ protein” (The United States of America, as represented by the …, priority 2010, dated 2013).

Target: recombinant E. coli FtsZ (Escherichia coli, UniProt P0A9A6)
Assay: Saturation Transfer Difference (STD) NMR binding to FtsZ
Experimental: Saturation transfer difference (STD) NMR experiments were recorded with the carrier set at −1 or 12 ppm for on-resonance irradiation and at 40 ppm for off-resonance irradiation. […] Selective protein saturation (2 s) was accomplished by using a train of 50 ms Gauss-shaped pulses, each separated by a 1 ms delay, at an experimentally determined optimal power (49 dB on our probe); a T1ρ filter (30 ms) was incorporated to suppress protein resonances. Experiments were recorded using a minimum of 1024 scans and 32K points. On- and off-resonance spectra were processed independently, and subtracted to provide a difference spectrum.
Saturation Transfer Difference (STD) NMR is an NMR technique that provides atomic level detail of the epitope used by a small molecule ligand to bind its macromolecular (protein) receptor. […] Spectra of were recorded at 298 K with the carrier set at −1 or 12 ppm for on-resonance irradiation and 50 ppm for off-resonance irradiation. Selective protein saturation (duration ranging from 1 to 5 s) was accomplished using a train of 50 ms Gauss-shaped pulses, each separated by a 1 ms delay, at an experimentally determined optimal power (49 dB); a T1ρ filter (30 ms) was incorporated to suppress protein resonances. A minimum of 512 scans and 4000 points were used to ensure high quality data with good signal-to-noise. On- and off-resonance spectra were processed independently, and subtracted to provide a difference spectrum. […] STD enhancements were measured by integrating difference spectra where the peaks showing the strongest enhancements relative to the control spectra were used to normalize all non-overlapped peaks in the difference spectra.

[1] = 100-fold excess of compound over FtsZ

Chain of recombinant E. coli FtsZ (P0A9A6 whole entry): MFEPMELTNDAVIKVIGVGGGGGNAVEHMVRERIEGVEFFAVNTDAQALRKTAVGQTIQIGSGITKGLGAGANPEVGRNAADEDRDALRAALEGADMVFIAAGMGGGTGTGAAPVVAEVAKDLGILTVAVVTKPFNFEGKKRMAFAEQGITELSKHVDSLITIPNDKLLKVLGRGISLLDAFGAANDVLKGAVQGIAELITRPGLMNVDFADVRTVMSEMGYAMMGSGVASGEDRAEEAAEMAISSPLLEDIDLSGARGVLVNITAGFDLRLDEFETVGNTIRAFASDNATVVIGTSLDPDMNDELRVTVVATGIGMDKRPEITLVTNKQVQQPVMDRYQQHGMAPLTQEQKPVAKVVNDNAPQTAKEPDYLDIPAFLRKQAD

## Oc1cc(O)c2c(c1)C/C(Cl)=C\Cc1cc(c(Cl)cc1O)Oc1c(O)cc(cc1O)C/C(Cl)=C\Cc1cc(c(Cl)cc1O)O2 [Compound 1, chrysophaentin 1]
[1]
  STD NMR combined enhancement, overlapped protons H-6′ and H-8: ~50%
  STD NMR enhancement, proton H-3: 100%
  STD NMR enhancement, proton H-3′: 98%
  STD NMR enhancement, proton H-12: 100%
  STD NMR enhancement, proton H-14: 100%
As restated with the docked model
  STD NMR enhancement, aromatic protons H-6 and H-6′: ~50%
